Patent EP4759814A1, “TRICYCLIC COMPOUND AND USE THEREOF AS MAT2A INHIBITOR” (SK Biopharmaceuticals Co., Ltd., priority 2023, dated 2025)

target: T1, MAT2A (Homo sapiens, UniProt P31153); test: MAT2A inhibitory activity, colorimetric phosphate detection (PiColorLock) enzyme assay; type: biochemical; details: Test Condition 1 or 2 (not stated which per compound); absorbance at 630 nm
T1 construct: purchased BPS Bioscience (USA) 71401
Experimental: In vitro assay: Methionine and adenosine triphosphate (ATP) are converted into S-adenosylmethionine (SAM) and inorganic phosphate (pi) via the catalytic action of methionine adenosyltransferase 2A (MAT2A). The produced pi is detected by the PiColorLock™ Phosphate Detection Reagent, which is a colorimetric assay, and the activity of MAT2A can be evaluated according to the amount of pi generated during the enzyme reaction. Each compound was evaluated under Test Condition 1 or 2 as described below.
• Concentration of MAT2A inhibitor: maximum concentration of 50 µM, 5-fold dilution (7 groups in total) • MAT2A concentration: 12 ng/µL • ATP and Met concentration: 100 µM, 80 µM
• Concentration of MAT2A inhibitor: maximum concentration of 1 µM, 3-fold dilution (7 groups in total) • MAT2A concentration: 4 ng/µL • ATP and Met concentration: 300 µM, 150 µM • Reagents: Methionine (catalog number M5308) and ATP (catalog number A2383) were purchased from Sigma-Aldrich (USA). MAT2A (catalog number 71401) was purchased from BPS Bioscience (USA), and PiColorLock™ Phosphate Detection Reagent (catalog number 303-0030) was purchased from Novus (USA).
Assay buffer composition: 50 mM Tris-HCl pH 8.0, 50 mM KCI, 15 mM MgCl2, 0.3 mM EDTA, 0.005 % (w/v) BSA
Experimental procedure: Each compound was diluted 5-fold or 3-fold based on the maximum concentration (5 mM or 1 mM or 0.1 mM) using DMSO. The diluted compounds were diluted 20-fold using assay buffer, and then mixed at a volume ratio of 1:2 with MAT2A (30 ng/µL or 10 ng/µL) diluted with assay buffer and treated for 30 minutes at room temperature. The negative control group is a group untreated with both the MAT2A enzyme and the compound according to an embodiment of the present application, and the positive control group is a group treated only with the MAT2A enzyme and untreated with the compound according to an embodiment of the present application.
In each well of a 384-well plate, 30 µL of the mixed solution and 20 µL of a 1:1 mixed solution of ATP (0.5 mM or 1.5 mM) and Met (0.4 mM or 0.75 mM) were mixed and then treated for 1 hour at room temperature. After the enzyme reaction, 13 µL of a 100:1 mixed solution of PiColorLockTM and Accelerator was treated in each well and reacted for 5 minutes at room temperature. After treating 5 µL of Stabilizer in each well and reacting for 25 minutes at room temperature, the absorbance at 630 nm was measured using SpectraMax M4 (Molecular Devices, USA) to calculate the IC50 value of the compound.
Analysis method: The enzyme activity (%) of each experimental group was calculated as {(average O.D. of compound-treated group - average O.D. of negative control group)/(average O.D. of positive control group - average O.D. of negative control group)} * 100. After preparing a dose-response curve (4-parameter) using the enzyme activity according to the treatment concentration of each compound in GraphPad Prism 9, the 50 % of enzyme inhibitory activity value (IC50) was calculated through non-linear regression analysis. The IC50 results measured for the MAT2A activity inhibitory ability of the compounds according to an embodiment of the present application are shown in Table 2 (+++: more than 1 to 100 nM, ++: more than 100 to 1,000 nM, +: more than 1,000 to 10,000 nM, -: more than 10,000 nM).

T1 sequence (P31153 whole entry): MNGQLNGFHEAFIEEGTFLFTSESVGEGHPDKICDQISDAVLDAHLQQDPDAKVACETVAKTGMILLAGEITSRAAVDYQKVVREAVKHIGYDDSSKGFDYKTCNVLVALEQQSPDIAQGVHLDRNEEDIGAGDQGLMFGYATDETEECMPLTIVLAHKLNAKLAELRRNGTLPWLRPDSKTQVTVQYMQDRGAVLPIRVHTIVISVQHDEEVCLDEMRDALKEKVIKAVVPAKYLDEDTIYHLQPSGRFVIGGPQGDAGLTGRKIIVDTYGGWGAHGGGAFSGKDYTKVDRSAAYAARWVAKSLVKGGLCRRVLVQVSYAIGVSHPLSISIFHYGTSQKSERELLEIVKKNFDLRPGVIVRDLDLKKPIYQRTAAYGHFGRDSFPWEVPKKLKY

Row | Structure (SMILES) | IC50
1 | Cc1ncccc1-n1c(=O)c2nccn2c2cc(Cl)c(Br)cc21 (atropisomer, axis not shown; (Ra)) [Example 80, (Ra)-7-bromo-8-chloro-5-(2-methylpyridin-3-yl)imidazo[1,2-a]quinoxalin-4(5H)-one] | > 10 µM
2 | Cc1cc2c(cc1C(F)(F)F)n(-c1cccnc1C)c(=O)c1nccn12 (atropisomer, axis not shown; (Ra)) [Example 94, (Ra)-8-methyl-5-(2-methylpyridin-3-yl)-7-(trifluoromethyl)imidazo[1,2-a]quinoxalin4(5H)-one] | > 10 µM
3 | Cc1ncccc1-n1c(=O)c2nccn2c2cc(Cl)c(C(F)(F)F)cc21 (atropisomer, axis not shown; (Ra)) [Example 97, (Ra)-8-chloro-5-(2-methylpyridin-3-yl)-7-(trifluoromethyl)imidazo[1,2-a]quinoxalin-4(5H)-one] | > 10 µM
4 | CCc1ncccc1-n1c(=O)c2nccn2c2cc(Cl)c(C(F)(F)F)cc21 (atropisomer, axis not shown; (Ra)) [Example 111, (Ra)-8-chloro-5-(2-ethylpyridin-3-yl)-7-(trifluoromethyl)imidazo[1,2-a]quinoxalin-4(5H)-one] | > 10 µM
5 | O=c1c2nccn2c2ccc(Cl)cc2n1-c1ccccc1F [Example 12, 7-chloro-5-(2-fluorophenyl)imidazo[1,2-a]quinoxalin-4(5H)-one] | > 10 µM
6 | Cc1c(F)cccc1-n1c(=O)c2nccn2c2ccc(OCC(F)(F)F)cc21 [Example 29, 5-(3-fluoro-2-methylphenyl)-7-(2,2,2-trifluoroethoxy)imidazo[1,2-a]quinoxalin-4(5H)-one] | > 10 µM
7 | CCOc1ccc2c(c1)n(-c1cccc(F)c1C)c(=O)c1nccn12 [Example 31, 7-ethoxy-5-(3-fluoro-2-methylphenyl)imidazo[1,2-a]quinoxalin-4(5H)-one] | > 10 µM
8 | Cc1ccccc1-n1c(=O)c2nccn2c2ccc(F)cc21 [Example 41, 7-fluoro-5-(o-tolyl)imidazo[1,2-a]quinoxalin-4(5H)-one] | 1 to 10 µM
9 | Cc1ccccc1-n1c(=O)c2nccn2c2cnc(Cl)cc21 [Example 42, 3-chloro-5-(o-tolyl)imidazo[1,2-a]pyrido[4,3-e]pyrazin-6(5H)-one] | > 10 µM
10 | N#Cc1ccccc1-n1c(=O)c2nccn2c2ccc(Cl)cc21 [Example 43, 2-(7-chloro-4-oxoimidazo[1,2-a]quinoxalin-5(4H)-yl)benzonitrile] | > 10 µM
11 | CS(=O)(=O)Nc1cccc(-n2c(=O)c3nccn3c3ccc(Cl)cc32)c1 [Example 44, N-(3-(7-chloro-4-oxoimidazo[1,2-a]quinoxalin-5(4H)-yl)phenyl)methanesulfonamide] | 0.001 to 0.1 µM
12 | Cc1ccccc1-n1c(=O)c2nccn2c2ccc(C(C)C)nc21 [Example 47, 7-isopropyl-5-(o-tolyl)imidazo[1,2-a]pyrido[2,3-e]pyrazin-4(5H)-one] | > 10 µM
13 | Cc1nccnc1-n1c(=O)c2nccn2c2ccc(Cl)cc21 [Example 48, 7-chloro-5-(3-methylpyrazin-2-yl)imidazo[1,2-a]quinoxalin-4(5H)-one] | 0.1 to 1 µM
14 | O=c1c2nccn2c2ccc(Cl)cc2n1-c1ccccc1OC(F)(F)F [Example 50, 7-chloro-5-(2-(trifluoromethoxy)phenyl)imidazo[1,2-a]quinoxalin-4(5H)-one] | 1 to 10 µM
15 | Cc1cccc(C)c1-n1c(=O)c2nccn2c2ccc(Cl)cc21 [Example 51, 7-chloro-5-(2,6-dimethylphenyl)imidazo[1,2-a]quinoxalin-4(5H)-one] | > 10 µM
16 | Cc1cccnc1-n1c(=O)c2nccn2c2ccc(Cl)cc21 [Example 53, 7-chloro-5-(3-methylpyridin-2-yl)imidazo[1,2-a]quinoxalin-4(5H)-one] | > 10 µM

Row | Structure (SMILES) | IC50
17 | CC(=O)c1cnc2c(=O)n(-c3cccnc3C)c3cc(C(F)(F)F)ccc3n12 [Example 59, 1-acetyl-5-(2-methylpyridin-3-yl)-7-(trifluoromethyl)imidazo[1,2-a]quinoxalin-4(5H)-one] | 1 to 10 µM
18 | Cc1ncccc1-n1c(=O)c2nc(CN3CCN(C)CC3)cn2c2ccc(Cl)cc21 [Example 61, 7-chloro-2-((4-methylpiperazin-1-yl)methyl)-5-(2-methylpyridin-3-yl)imidazo[1,2-a]quinoxalin-4(5H)-one] | > 10 µM
19 | Cc1ncccc1-n1c(=O)c2nc(CN3CCOCC3)cn2c2ccc(Cl)cc21 [Example 62, 7-chloro-5-(2-methylpyridin-3-yl)-2-(morpholinomethyl)imidazo[1,2-a]quinoxalin-4(5H)-one] | 0.1 to 1 µM
20 | Cc1ncccc1-n1c(=O)c2nc(CN3CCC4(CC3)COC4)cn2c2ccc(Cl)cc21 [Example 63, 2-((2-oxa-7-azaspiro[3.5]nonane-7-yl)methyl)-7-chloro-5-(2-methylpyridin-3-yl)imidazo[1,2-a]quinoxalin-4(5H)-one] | > 10 µM
21 | COCCNCc1cn2c(n1)c(=O)n(-c1cccnc1C)c1cc(Cl)ccc12 [Example 64, 7-chloro-2-(((2-methoxyethyl)amino)methyl)-5-(2-methylpyridin-3-yl)imidazo[1,2-a]quinoxalin-4(5H)-one] | 0.1 to 1 µM
22 | Cc1ccccc1-n1c(=O)c2nccn2c2cc(Br)c(Cl)cc21 [Example 72, 8-bromo-7-chloro-5-(o-tolyl)imidazo[1,2-a]quinoxalin-4(5H)-one] | 1 to 10 µM
23 | Cc1ncccc1-n1c(=O)c2nccn2c2cc(C(F)(F)F)c(Br)cc21 [Example 76, 7-bromo-5-(2-methylpyridin-3-yl)-8-(trifluoromethyl)imidazo[1,2-a]quinoxalin-4(5H)-one] | > 10 µM
24 | Cc1ncccc1-n1c(=O)c2nccn2c2cc(C(F)F)c(Br)cc21 [Example 82, 7-bromo-8-(difluoromethyl)-5-(2-methylpyridin-3-yl)imidazo[1,2-a]quinoxalin-4(5H)-one] | > 10 µM
25 | Cn1nccc1-n1c(=O)c2nccn2c2cc(Cl)c(Br)cc21 [Example 83, 7-bromo-8-chloro-5-(1-methyl-1H-pyrazol-5-yl)imidazo[1,2-a]quinoxalin-4(5H)-one] | 1 to 10 µM
26 | Cc1cc2c(cc1Br)n(-c1cccnc1O)c(=O)c1nccn12 [Example 90, 7-bromo-5-(2-hydroxypyridin-3-yl)-8-methylimidazo[1,2-a]quinoxalin-4(5H)-one] | > 10 µM
27 | Cc1ncccc1-n1c(=O)c2nccn2c2c(N3CCCC3)cc(Cl)cc21 [Example 104, 7-chloro-5-(2-methylpyridin-3-yl)-9-(pyrrolidine-1-yl)imidazo[1,2-a]quinoxalin-4(5H)-one] | > 10 µM
28 | Cc1ncccc1-n1c(=O)c2nccn2c2c(N(C)C)cc(Cl)cc21 [Example 106, 7-chloro-9-(dimethylamino)-5-(2-methylpyridin-3-yl)imidazo[1,2-a]quinoxalin-4(5H)-one] | > 10 µM
29 | Cc1ncccc1-n1c(=O)c2nccn2c2c(OC(F)F)cc(C(F)(F)F)cc21 [Example 115, 9-(difluoromethoxy)-5-(2-methylpyridin-3-yl)-7-(trifluoromethyl)imidazo[1,2-a]quinoxalin-4(5H)-one] | 0.1 to 1 µM
30 | Cc1ncccc1-n1c(=O)c2nccn2c2c(OCC(F)(F)F)cc(C(F)(F)F)cc21 [Example 117, 5-(2-methylpyridin-3-yl)-9-(2,2,2-trifluoroethoxy)-7-(trifluoromethyl)imidazo[1,2-a]quinoxalin-4(5H)-one] | 0.001 to 0.1 µM
31 | CCOc1cc(C(F)(F)F)cc2c1n1ccnc1c(=O)n2-c1cccnc1C [Example 118, 9-ethoxy-5-(2-methylpyridin-3-yl)-7-(trifluoromethyl)imidazo[1,2-a]quinoxalin-4(5H)-one] | 0.001 to 0.1 µM
